Reference: patent US8889680B2, “Treatment or prevention of fungal infections with PDK1 inhibitors” (priority 2010, dated 2014)

Key:
[1] = tested on: S. cerevisiae pkh and ypk mutants; experiment: Disk diffusion assay, S. cerevisiae mutants; assay type: cell-based
Method: (§1) Plates were incubated at 30° C. for 3 days prior to photography.
(§2) The antifungal activity of protein kinase inhibitors was determined using the Clinical and Laboratory Science Institute microdilution protocol M-27A2. Biofilm antifungal activity was determined using the protocol of Pierce et al. and is reported as MIC50S (Pierce et al., Nat. Protoc. 3:1494-1500 (2008)). Disk diffusion assays were performed as described previously (Roelants et al., Microbiology 150:3289-304 (2004)).
Heterozygous diploid yeast mutants lacking one allele of the gene encoding a putative drug target are frequently hypersensitive to the effects of that drug. This is called drug-induced haploinsufficiency. Similarly, if a drug targets the products of two redundant genes, then deletion of one of those genes in a haploid yeast strain will hypersensitize the strain to that drug. […] Pkh1/2 phosphorylates two other AGC protein kinases involved in yeast cell wall integrity, Ypk1&2.

[2] = tested on: Candida spp.; experiment: Antifungal susceptibility (microdilution MIC), Candida spp.; assay type: cell-based
Method: as §2
(FIG. 3A). […] Since the echinocandin class of cell wall-targeted 1,3-β-glucan synthase inhibitors is not active against C. neoformans, this represents one of the few cell wall-targeted molecules with activity against this important pathogen.

[3] = tested on: eisosomes in S. cerevisiae cells; experiment: Eisosome pattern by fluorescence microscopy (Pil1-GFP); assay type: cell-based; conditions: KP-372-1 (1/2 MIC), within one hour of treatment, versus DMSO
Method: Light and fluorescence microscopy was performed using a Nikon ES80 epi-fluorescence microscope equipped with a CoolSnap CCD camera. Images were collected using NIS-Elements Software and processed in PhotoShop. All images were collected with identical exposure settings and equally processed with respect to tone and contrast.
The micrographs of the KP-372-1-treated cells closely match those previously reported (Luo et al., J. Biol. Chem. 283:10433-44 (2008)) and, consequently, support a model in which Pil1 phosphorylation is required for eisosome assembly/stabilization.

[4] = tested on: Pkh1/2-dependent phosphorylation of Pil1-GFP; experiment: Pil1-GFP phosphorylation immunoblot; assay type: cell-based, S. cerevisiae; conditions: sub-inhibitory KP-372-1 (1/2 MIC); cells with endogenous Pkh1/2 and cells over-expressing Pkh2; Western blot
Method: Cells were harvested at the indicated times and analyzed by Pil1-GFP immunoblotting. Pil1-P corresponds to the Pkh1/2-dependent phosphorylated Pil1 species.
Western blot analysis of Pil1-GFP was performed essentially as described (Luo et al., J. Biol. Chem. 283:10433-44 (2008)). Briefly, Pil1-GFP containing cells were harvested and lysed using the SDS-PAGE sample buffer method. Extracts corresponding to equivalent numbers of cells were fractionated by SDS-PAGE electrophoresis on 7% gels, transferred to nitrocellulose and blocked overnight in 50 mM Tris pH 7.5/150 mM NaCl/0.05% (v/v) Tween-20+5% (w/v) non-fat skim milk. Pil1-GFP was detected using mouse anti-GFP (1:10,000 dilution, Clontech Living Colors) (Clontech; Mountain View, Calif.) as primary and goat anti-mouse antibodies conjugated with horse-radish peroxidase (1:10,000) followed by visualization with ECL-Plus reagents (Amersham; Piscataway, N.J.).
S. cerevisiae strains containing a chromosomally-integrated PIL1-GFP allele were transformed with a vector control or a plasmid expressing PKH2 under the control of a galactose-inducible promoter. […] The phosphorylation status of Pil1-GFP was followed over a 3.5 hour time course by Western blot.

[5] = tested on: C. neoformans PKH2-01 and PKH2-02 deletion mutants; experiment: Disk diffusion assay, C. neoformans mutants; assay type: cell-based, Cryptococcus neoformans; conditions: 30° C.
Method: as §1, §2

SMILES: O=C1c2ccccc2-c2nc3nnnn3nc21.O=C1c2ccccc2-c2nn3nnnc3nc21 [KP-372-1]
- zone of inhibition versus wild type ([1]; S. cerevisiae pkh2D mutant, compared with wild type or pkh1D): larger zone of inhibition
- sensitivity versus wild type ([1]; S. cerevisiae ypk1D and ypk2D mutants): as sensitive to KP-372-1 as wild type
- MIC ([2]; Candida spp., FIG. 7 legend): 3 to 25 µg/mL
- antifungal activity (in words) ([2]; other Candida spp. compared with C. albicans and C. glabrata): less so
- number of peripheral eisosomes [3]: dramatically decreased
- phosphorylation of Pil1-GFP [4]: rapidly blocked
- sensitivity versus wild type ([5]; C. neoformans PKH2-01 mutant): slightly more sensitive
- sensitivity versus wild type ([5]; C. neoformans PKH2-02 mutant): significantly more sensitive
